Laboratory results: publication PMC9120017, “Inhibition mechanism of the chloride channel TMEM16A by the pore blocker 1PBC” (Nature Communications, 2022)
Read-outs that look alike come from different tables or passages of the source.

Molecular target: T1, mouse TMEM16A mutant I640A (Mus musculus, UniProt Q8BHY3, I640A)
T1 construct: expressed in transfected cells; host or cells: HEK293T
T1 sequence (Q8BHY3 1-960 I640A): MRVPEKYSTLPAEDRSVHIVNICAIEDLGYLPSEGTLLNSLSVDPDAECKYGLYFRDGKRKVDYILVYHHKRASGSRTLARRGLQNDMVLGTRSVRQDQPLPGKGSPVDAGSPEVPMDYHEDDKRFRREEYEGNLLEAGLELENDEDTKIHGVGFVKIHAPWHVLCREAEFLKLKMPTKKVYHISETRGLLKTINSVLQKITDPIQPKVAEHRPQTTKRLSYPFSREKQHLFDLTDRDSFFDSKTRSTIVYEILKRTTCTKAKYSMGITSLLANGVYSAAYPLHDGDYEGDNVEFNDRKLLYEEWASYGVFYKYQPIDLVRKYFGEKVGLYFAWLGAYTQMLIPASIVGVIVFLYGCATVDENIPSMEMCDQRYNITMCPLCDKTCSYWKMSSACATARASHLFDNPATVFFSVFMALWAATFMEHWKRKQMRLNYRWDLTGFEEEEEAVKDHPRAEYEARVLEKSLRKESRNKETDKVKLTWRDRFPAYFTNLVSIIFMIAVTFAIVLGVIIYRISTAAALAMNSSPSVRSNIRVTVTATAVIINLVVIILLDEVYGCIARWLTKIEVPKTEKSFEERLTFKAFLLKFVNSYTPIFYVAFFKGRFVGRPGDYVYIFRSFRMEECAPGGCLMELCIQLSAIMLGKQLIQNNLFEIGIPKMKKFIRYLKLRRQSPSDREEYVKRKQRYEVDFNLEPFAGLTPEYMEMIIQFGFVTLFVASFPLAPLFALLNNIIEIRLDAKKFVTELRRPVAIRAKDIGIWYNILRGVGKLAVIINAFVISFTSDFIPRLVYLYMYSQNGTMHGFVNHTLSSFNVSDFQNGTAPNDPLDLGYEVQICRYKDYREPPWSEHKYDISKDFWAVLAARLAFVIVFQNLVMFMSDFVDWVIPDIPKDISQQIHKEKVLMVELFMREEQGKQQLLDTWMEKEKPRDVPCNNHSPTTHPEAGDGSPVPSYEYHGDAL
Experiment: Inside-out patch recording of 1PBC block, mutant I640A
Type: cell-based
Conditions: for remaining activity at 100 µM: 1PBC conc 100; for remaining activity at 100 µM / remaining activity at 3 µM / remaining activity at 10 µM / remaining activity at 30 µM: read-out: relative current in 1PBC (avr); for remaining activity at 3 µM: 1PBC conc 3; for remaining activity at 10 µM: 1PBC conc 10; for remaining activity at 30 µM: 1PBC conc 30
Method: HEK293T cells (ATCC CRL-1573) were maintained in Dulbecco’s modified Eagle’s medium (DMEM; Sigma-Aldrich) supplemented with 10 U ml^−1 penicillin, 0.1 mg ml^−1 streptomycin (Sigma-Aldrich), 2 mM L-glutamine (Sigma-Aldrich), and 10% FBS (Sigma-Aldrich) in a humidified atmosphere containing 5% CO2 at 37 °C. HEK293S GnTI^− cells (ATCC CRL-3022) were maintained in HyClone HyCell TransFx-H medium (GE Healthcare) supplemented with 10 U ml^−1 penicillin, 0.1 mg ml^−1 streptomycin, 4 mM L-glutamine, 0.15% poloxamer 188 (Sigma-Aldrich), and 1% FBS in an atmosphere containing 5% CO2 at 185 rpm at 37 °C. The ac splice variant of mouse TMEM16A (UniProt ID: Q8BHY3), mouse TMEM16B (UniProt ID: Q8CFW1), or mouse TMEM16F (UniProt ID: Q6P9J9) bearing a 3C cleavage site, a Venus YFP, a Myc tag, and a Streptavidin-binding peptide (SBP) downstream of the open reading frame in a modified pcDNA3.1 vector (Invitrogen) were used as described previously[21],[31]. Mutations were introduced using a modified QuikChange method[58] and were verified by sequencing.
HEK293T cells were transfected with 3–4 μg DNA per 6 cm Petri dish using the calcium phosphate co-precipitation method and were used within 24–96 h after transfection. Recordings were performed on inside-out patches excised from HEK293T cells expressing the construct of interest. Patch pipettes were pulled from borosilicate glass capillaries (O.D. 1.5 mm, I.D. 0.86 mm, Sutter Instrument) and were fire-polished with a microforge (Narishige) before use. Pipette resistance was typically 3–8 MΩ when filled with the recording solutions detailed below. Seal resistance was typically 4 GΩ or higher. Voltage-clamp recordings were made using Axopatch 200B, Digidata 1550, and Clampex 10.7 (Molecular Devices). Analog signals were filtered with the in-built 4-pole Bessel filter at 10 kHz and were digitized at 20 kHz. Solution exchange was achieved using a gravity-fed system through a theta glass pipette mounted on an ultra-fast piezo-driven stepper (Siskiyou). […] All recordings were performed at 20 °C.
A symmetrical ionic condition was used throughout. Stock solution with Ca^2+-EGTA contained 150 mM NaCl, 5.99 mM Ca(OH)2, 5 mM EGTA, and 10 mM HEPES at pH 7.40. Stock solution with EGTA contained 150 mM NaCl, 5 mM EGTA, and 10 mM HEPES at pH 7.40. Free Ca^2+ concentrations were adjusted by mixing the stock solutions at the required ratios calculated using the WEBMAXC program (http://web.stanford.edu/~cpatton/webmaxcS.htm). Patch pipettes were filled with the stock solution with Ca^2+-EGTA, which has a free Ca^2+ concentration of 1 mM. 1PBC (ChemBridge) stock was reconstituted in anhydrous DMSO (Sigma-Aldrich) at 100 mM and stored at −20 °C. Working solutions with 1PBC were prepared by serial dilution. Unless otherwise stated, experiments were performed at a saturating Ca^2+ concentration as shown in Supplementary Table 1 and the primary data were corrected for current rundown as described previously[21],[25].
Concentration-response relations, obtained from the ratio of the I-V plots before and after the application of the blocker, were fitted to the Hill equation,1 I/Imax=1/1+IC50/[blocker]^h where I/Imax is the normalized current responses, IC50 defines the concentration at which inhibition is at its half-maximum, and h is the Hill coefficient.

A remaining activity at 100 µM (40 mV) of 18.8%, an IC50 (60 mV, 15 µM Ca2+) of 23.1 µM and a remaining activity at 3 µM (60 mV) of 89% were found for N#Cc1c(C(F)(F)F)cc(O)n2c1nc1ccccc12 [1PBC] in this work. It also gave a remaining activity at 10 µM (60 mV) of 69.4%, a remaining activity at 30 µM (60 mV) of 44.3% and a remaining activity at 100 µM (60 mV) of 17.7%. For the same molecule, the “log-fold IC50 (change of mutant vs WT)” value (80 mV) was 1.079, the IC50 (80 mV, 15 µM Ca2+) was 22.1 µM and the remaining activity at 3 µM (80 mV) was 89.4%. For the same molecule, the remaining activity at 10 µM (80 mV) was 67.9%, the remaining activity at 30 µM (80 mV) was 43% and the remaining activity at 100 µM (80 mV) was 17.7%. The IC50 (100 mV, 15 µM Ca2+) was 23.1 µM, the remaining activity at 3 µM (100 mV) was 91.3% and the remaining activity at 10 µM (100 mV) was 69.4%. For the same molecule, the remaining activity at 30 µM (100 mV) was 43.1%, the remaining activity at 100 µM (100 mV) was 18% and the IC50 (120 mV, 15 µM Ca2+) was 24.9 µM. The remaining activity at 3 µM (120 mV) was 93.7%, the remaining activity at 10 µM (120 mV) was 71.5% and the remaining activity at 30 µM (120 mV) was 45%. It also gave a remaining activity at 100 µM (120 mV) of 17.7%, an IC50 (140 mV, 15 µM Ca2+) of 28.2 µM and a remaining activity at 3 µM (140 mV) of 96.5%. It also gave a remaining activity at 10 µM (140 mV) of 75.3%, a remaining activity at 30 µM (140 mV) of 47.6% and a remaining activity at 100 µM (140 mV) of 18.5%. It also gave an IC50 (-20 mV, 15 µM Ca2+) of 36.1 µM, a remaining activity at 3 µM (-20 mV) of 91.2% and a remaining activity at 10 µM (-20 mV) of 78.5%. It also gave a remaining activity at 30 µM (-20 mV) of 55.5%, a remaining activity at 100 µM (-20 mV) of 25.8% and an IC50 (-40 mV, 15 µM Ca2+) of 41.5 µM. The remaining activity at 3 µM (-40 mV) was 91.5%, the remaining activity at 10 µM (-40 mV) was 80.9% and the remaining activity at 30 µM (-40 mV) was 58.8%. For the same molecule, the remaining activity at 100 µM (-40 mV) was 28.8%, the IC50 (-60 mV, 15 µM Ca2+) was 46.6 µM and the remaining activity at 3 µM (-60 mV) was 91.7%. For the same molecule, the remaining activity at 10 µM (-60 mV) was 83.4%, the remaining activity at 30 µM (-60 mV) was 61.1% and the remaining activity at 100 µM (-60 mV) was 31.4%. It also gave an IC50 (-80 mV, 15 µM Ca2+) of 53 µM, a remaining activity at 3 µM (-80 mV) of 92.4% and a remaining activity at 10 µM (-80 mV) of 84.6%. It also gave a remaining activity at 30 µM (-80 mV) of 64.1%, a remaining activity at 100 µM (-80 mV) of 34.6% and an IC50 (-100 mV, 15 µM Ca2+) of 60.2 µM. For the same molecule, the remaining activity at 3 µM (-100 mV) was 93.4%, the remaining activity at 10 µM (-100 mV) was 86.7% and the remaining activity at 30 µM (-100 mV) was 66.4%. For the same molecule, the remaining activity at 100 µM (-100 mV) was 37.8%, the IC50 (-120 mV, 15 µM Ca2+) was 66 µM and the remaining activity at 3 µM (-120 mV) was 93.4%. The remaining activity at 10 µM (-120 mV) was 87.4%, the remaining activity at 30 µM (-120 mV) was 68.3% and the remaining activity at 100 µM (-120 mV) was 40.2%. The IC50 (-140 mV, 15 µM Ca2+) was 73.5 µM, the remaining activity at 3 µM (-140 mV) was 93.7% and the remaining activity at 10 µM (-140 mV) was 88.3%. It also gave a remaining activity at 30 µM (-140 mV) of 69.4%, a remaining activity at 100 µM (-140 mV) of 44% and an IC50 (I640A, V 0 mV) of 31.5 µM. The IC50 (I640A, V 20 mV) was 27.5 µM, the IC50 (I640A, V 40 mV) was 24.7 µM and the IC50 (I640A, V 60 mV) was 23.1 µM. The IC50 (I640A, V 80 mV) was 22.1 µM, the IC50 (I640A, V 100 mV) was 23.1 µM and the IC50 (I640A, V 120 mV) was 24.9 µM. For the same molecule, the IC50 (I640A, V 140 mV) was 28.2 µM, the IC50 (I640A, V -20 mV) was 36.1 µM and the IC50 (I640A, V -40 mV) was 41.5 µM. It also gave an IC50 (I640A, V -60 mV) of 46.6 µM, an IC50 (I640A, V -80 mV) of 53 µM and an IC50 (I640A, V -100 mV) of 60.2 µM. The IC50 (I640A, V -120 mV) was 66 µM and the IC50 (I640A, V -140 mV) was 73.5 µM.
